Assay results as given in patent publication US8546404B2, “Compounds that are ERK inhibitors” (Merck Sharp & Dohme, priority 2005, dated 2013).
Values joined by “and” are separate entries in the source; they are usually repeats but may differ in a detail not shown here. Equal values may be shown once.

Tested on: not listed separately
Experiment: Cassette Accelerating Rapid Rat Screen (CARRS), AUC during the first 6 hours
Assay type: in vivo, Male Sprague-Dawley rats
Details: male, Sprague-Dawley, plasma, 10 mg/kg, PO, AUC during the first 6 hours (AUC6hr)
Experimental: The AUC (Area Under the Concentration-Time Curve During the First 6 Hours (AUC6hr) in Table 30 Below was Determined Using the Protocol of Cassette Accelerating Rapid Rat Screen (CARRS)
Animal Dosing and Sample Collection
Male Sprague-Dawley rats (Charles River, Co.) were pre-cannulated (femoral artery) in order to facilitate precise blood sampling times, and to reduce the stress on the animals caused by serial bleedings. Following an overnight fast, two rats were dosed orally with one compound at a dose of 10 mg/kg in a 5-mL/kg dose volume. Blood was collected into heparin-containing tubes serially from each animal at 0.5, 1, 2, 3, 4 and 6 h post-dosing and centrifuged to generate plasma. Approximately 100 μL of plasma were collected at the individual time points. The plasma samples were stored at −20° C. until analysis.
Plasma Sample and Standard Curve Preparation
A set of 12 rat plasma samples was generated for each NCE (i.e. 6 timepoints and n=2 rats). These 12 samples were pooled across the two rats at each timepoint to provide 6 pooled samples (one sample per time point) for each NCE. The pooled samples were assayed as cassettes of six (36 samples total) to provide data on the six compounds. The 50-μL aliquots of the 36 plasma samples were placed into individual wells of a 96-well plate. An additional compound (often a structural analog of the test compounds) was selected as the internal standard. A mini-calibration curve was prepared (three points plus a zero) for each compound assayed. Drug-free rat plasma was measured into 1-mL aliquots and each aliquot was spiked with known concentrations of the compounds to generate standards of the desired concentrations. The concentrations of the standards were chosen to bracket the expected concentration of the pooled samples based on historical data from previous studies on other compounds. For this work, the standards were set to contain concentrations of 25, 250 and 2500 ng NCE/mL plasma. The plasma standards were precipitated in duplicate along with the samples. Protein precipitation occurred after addition of 150 μL of acetonitrile containing the internal standard at a concentration of 1 ng/mL into each sample well using the Tomtec Quadra 96 system. The precipitated samples and standards were vortexed and centrifuged in the 96-well plate. Approximately 50-100 μL of the supernatant were removed and placed into a fresh 96-well plate using the Tomtec Quadra 96 system. A volume of 5-10 μL of the supernatant was used for analysis by HPLC-MS/MS. The mini-standard curve was run in duplicate, once before and once after the samples. Thus, a total of 14 study samples plus standards were analyzed per compound. In addition, solvent blanks were injected before and after each set of 14 and after the highest calibration standard for each compound; therefore, a total of 103 injections were made into each HPLC system for each set of six compounds. Multiple solvent blank injections could be made from a single well. Twelve solvent blank wells were designated in each 96-well plate. Thus, one batch (cassette) of six NCEs was prepared and assayed using one 96-well plate format.
All the compounds were analyzed using selected reaction monitoring (SRM) methods with LC/MS/MS instruments. Once the method development had been completed, the assay was quickly set up using a standard injection sequence template for the CARRS assay.

| AUC | SMILES |
| --- | --- |
| 2.2 µM·h | CO[C@@]1(C(=O)Nc2ccc3[nH]nc(-c4ccc(F)cc4)c3c2)CCN(CC(=O)N2CCC(c3ccc(-c4ncccn4)cc3)CC2)C1 [Example 479] |
| 1.1 µM·h | CO[C@@]1(C(=O)Nc2ccc3[nH]nc(-c4ccc(F)cc4)c3c2)CCN(CC(=O)N2CC=C(c3ccc(-c4ncccn4)cc3F)CC2)C1 [Example 825] |
| 1.13 µM·h | CCNc1nnc(-c2ccc(C3=CCN(C(=O)CN4CC[C@@](OC)(C(=O)Nc5ccc6[nH]nc(-c7ccc(F)cc7)c6c5)C4)CC3)c(F)c2)o1 [Example 622, 1-(2-{4-[4-(5-Ethylamino-[1,3,4]oxadiazol-2-yl)-2-fluoro-phenyl]-3,6-dihydro-2H-pyridin-1-yl}-2-oxo-ethyl)-3-methoxy-pyrrolidine-3-carboxylic acid [3-(4-fluoro-phenyl)-1 indazol-5-yl]-amide] |
| 25.9 µM·h | CS[C@@]1(C(=O)Nc2ccc3[nH]nc(-c4ccc(F)cc4)c3c2)CCN(CC(=O)N2CC=C(c3ccc(-c4ncccn4)cc3)CC2)C1 [Example 613] |
| 7.22 µM·h | COC[C@@]1(C(=O)Nc2ccc3[nH]nc(-c4ccnc(C5CC5)c4)c3c2)CCN(CC(=O)N2CC=C(c3ccc(-c4ncccn4)cc3)CC2)C1 [Example 336, 3-Methoxymethyl-1-{2-[4-(4-pyrimidin-2-yl-phenyl)-3,6-dihydro-2H-pyridin-1-yl]-acetyl}-pyrrolidine-3-carboxylic acid [3-(2-cyclopropyl-pyridin-4-yl)-1H-indazol-5-yl]-amide] |

| SMILES | AUC |
| --- | --- |
| CO[C@@]1(C(=O)Nc2ccc3[nH]nc(-c4ccnc(C5CC5)c4)c3c2)CCN(CC(=O)N2CC=C(c3ccc(-c4ncccn4)cc3)CC2)C1 [Example 459] | 1.2 µM·h |

Molecular target: fully phosphorylated, active Mouse ERK2 protein (Mus musculus (Mouse), UniProt P63085)
Experiment: Active ERK2 Assay (IMAP format)
Assay type: biochemical
Details: read-out: AERK2 IC50
Experimental: Activated ERK2 activity was also determined in the IMAP assay format using the procedure outlined above. […] Reactions proceeded for 30 minutes before termination by addition of 60 μl IMAP detection beads in binding buffer. Plates were read as above after 30 minute binding equilibration.

fully phosphorylated, active Mouse ERK2 protein, sequence (P63085 whole entry): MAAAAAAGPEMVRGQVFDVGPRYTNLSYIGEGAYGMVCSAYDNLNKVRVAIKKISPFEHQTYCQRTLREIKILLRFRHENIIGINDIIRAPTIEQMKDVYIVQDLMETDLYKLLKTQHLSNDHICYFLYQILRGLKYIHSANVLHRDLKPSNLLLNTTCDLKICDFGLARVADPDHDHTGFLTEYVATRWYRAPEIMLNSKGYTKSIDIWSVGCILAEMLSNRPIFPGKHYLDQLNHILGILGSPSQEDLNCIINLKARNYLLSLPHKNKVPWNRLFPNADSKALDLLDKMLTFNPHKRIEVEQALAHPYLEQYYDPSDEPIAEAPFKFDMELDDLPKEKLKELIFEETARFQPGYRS

| IC50 | SMILES |
| --- | --- |
| 9.1 nM | CO[C@@]1(C(=O)Nc2ccc3[nH]nc(-c4ccc(F)cc4)c3c2)CCN(CC(=O)N2CCC(c3ccc(-c4ncccn4)cc3)CC2)C1 [Example 479] |
| 20 nM | CO[C@@]1(C(=O)Nc2ccc3[nH]nc(-c4ccc(F)cc4)c3c2)CCN(CC(=O)N2CC=C(c3ccc(-c4ncccn4)cc3F)CC2)C1 [Example 825] |
| 5 nM | CCNc1nnc(-c2ccc(C3=CCN(C(=O)CN4CC[C@@](OC)(C(=O)Nc5ccc6[nH]nc(-c7ccc(F)cc7)c6c5)C4)CC3)c(F)c2)o1 [Example 622, 1-(2-{4-[4-(5-Ethylamino-[1,3,4]oxadiazol-2-yl)-2-fluoro-phenyl]-3,6-dihydro-2H-pyridin-1-yl}-2-oxo-ethyl)-3-methoxy-pyrrolidine-3-carboxylic acid [3-(4-fluoro-phenyl)-1 indazol-5-yl]-amide] |
| 10 nM | CS[C@@]1(C(=O)Nc2ccc3[nH]nc(-c4ccc(F)cc4)c3c2)CCN(CC(=O)N2CC=C(c3ccc(-c4ncccn4)cc3)CC2)C1 [Example 613] |
| 0.16 to 18 nM and 0.16 to 1.5 nM and 0.78 nM | O=C(Nc1ccc2[nH]nc(-c3ccncc3)c2c1)[C@@H]1CCN(CC(=O)N2CCN(c3ccc(-c4ncc(F)cn4)cc3)CC2)C1 [Example 186] |
| 0.16 to 18 nM | COCCOc1cc(-c2n[nH]c3ccc(NC(=O)[C@]4(OC)CCN(CC(=O)N5CC=C(c6ccc(-c7ncccn7)cc6)CC5)C4)cc23)ccc1F [Example 741] |
| 0.16 to 18 nM | COCC1(C(=O)Nc2ccc3[nH]nc(-c4ccncc4)c3c2)CCN(CC(=O)N2CC=C(c3nccs3)CC2)C1 (stereo not drawn) [Example 306] |
| 0.16 to 18 nM | CO[C@@]1(C(=O)Nc2ccc3[nH]nc(-c4ccc(F)c(CO)c4)c3c2)CCN(CC(=O)N2CCC(c3ccc(-c4ncccn4)cc3)CC2)C1 [Example 794] |
| 0.16 to 18 nM | CNC(=O)c1n[nH]c2ccc(NC(=O)[C@@H]3CCN(CC(=O)N4CC=C(c5nccs5)CC4)C3)cc12 [Example 168] |
| 0.16 to 18 nM | CO[C@@]1(C(=O)Nc2ccc3[nH]nc(-c4ccnc(C(F)(F)F)c4)c3c2)CCN(CC(=O)N2CC=C(c3ccc(-c4ncccn4)cc3F)CC2)C1 [Example 682] |
| 0.16 to 18 nM | C=CCC1(C(=O)Nc2ccc3[nH]nc(-c4ccncc4)c3c2)CCN(CC(=O)N2CCN(c3ccc(-c4ncccn4)cc3)CC2)C1 (stereo not drawn) [Example 289] |
| 0.16 to 18 nM | C#CCC1(C(=O)Nc2ccc3[nH]nc(-c4ccncc4)c3c2)CCN(CC(=O)N2CCN(c3ccc(-c4ncccn4)cc3)CC2)C1 (stereo not drawn) [Example 292] |
| 0.16 to 18 nM | CCc1cc(-c2n[nH]c3ccc(NC(=O)[C@]4(OC)CCN(CC(=O)N5CC=C(c6nccs6)CC5)C4)cc23)ccn1 [Example 802] |
| 0.16 to 18 nM | O=C(Nc1ccc2[nH]nc(-c3ccncc3)c2c1)[C@@H]1CCN(CC(=O)N2CCc3ccccc3C2)C1 [Example 332] |
| 0.16 to 18 nM | CO[C@@]1(C(=O)Nc2ccc3[nH]nc(-c4ccnc(C5CC5)c4)c3c2)CCN(CC(=O)N2CC=C(c3ncc(-c4ncccn4)s3)CC2)C1 [Example 777] |
| 0.16 to 18 nM | COCC1(C(=O)Nc2ccc3[nH]nc(-c4ccc(F)cc4)c3c2)CCN(CC(=O)N2CCN(c3ccc(-c4ncccn4)cc3)CC2)C1 (stereo not drawn) [Example 125, 3-methoxymethyl-1-{2-oxo-2-[4-(4-pyrimidin-2-yl-phenyl)-piperazin-1-yl]-ethyl}-pyrrolidine-3-carboxylic acid [3-(4-fluoro-phenyl)-1H-indazol-5-yl]-amide] |
| 0.16 to 18 nM | O=C(Nc1ccc2[nH]nc(-c3ccc(F)cc3)c2c1)C1CCN(CC(=O)N2CCN(c3ccc(-c4ncccn4)cn3)CC2)C1 (stereo not drawn) [Example 98] |
| 0.16 to 18 nM | CS[C@@]1(C(=O)Nc2ccc3[nH]nc(-c4ccc(F)cc4)c3c2)CCN(CC(=O)N2CCN(c3ccc(-c4ncccn4)cc3)CC2)C1 [Example 647] |
| 0.16 to 18 nM | CO[C@@]1(C(=O)Nc2ccc3[nH]nc(-c4ccc(F)cc4)c3c2)CCN(CC(=O)N2CCN(c3cc(F)c(-c4ncccn4)cc3F)CC2)C1 [Example 663] |
| 0.16 to 18 nM | COCCOc1ccc(-c2n[nH]c3ccc(NC(=O)[C@]4(OC)CCN(CC(=O)N5CC=C(c6ncc(-c7ncccn7)s6)CC5)C4)cc23)cc1 [Example 765] |
| 0.16 to 18 nM | COCc1cc(-c2n[nH]c3ccc(NC(=O)[C@]4(OC)CCN(CC(=O)N5CC=C(c6ccc(-c7ncccn7)cc6F)CC5)C4)cc23)ccc1F [Example 747] |
| 0.16 to 18 nM | CO[C@@]1(C(=O)Nc2ccc3[nH]nc(-c4ccc(OCCO)cc4)c3c2)CCN(CC(=O)N2CC=C(c3ccc(-c4ncccn4)cc3)CC2)C1 [Example 822] |
| 0.16 to 18 nM | CNC(=O)c1n[nH]c2ccc(NC(=O)[C@@H]3CCN(CC(=O)N4C[C@@H]5C[C@H]4CN5c4ccc(-c5ncc(C)cn5)cc4)C3)cc12 [Example 154] |

| SMILES | IC50 |
| --- | --- |
| CO[C@@]1(C(=O)Nc2ccc3[nH]nc(-c4ccnc(C5CC5)c4)c3c2)CCN(CC(=O)N2CC=C(c3ccc(-c4ncccn4)cc3)CC2)C1 [Example 459] | 2.5 nM |
